{
  "source": "patent US8497380B2",
  "about": "“Substituted acetophenones useful as PDE4 inhibitors” (Leo Pharma A/S, priority 2006, dated 2013)",
  "data": [
    {"tested_on": "Human peripheral blood mononuclear cells (PBMC)", "test": "TNFalfa-Release", "assay_type": "cell-based", "conditions": "inhibition of TNF-a secretion, PBMC pre-incubated 30 minutes, stimulated 18 hours with lipopolysaccharide", "outline": "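Buffy-coat PBMC at 5×105 c/ml in RPMI1640 with 2% FCS were pre-incubated 30 min with compound, then stimulated 18 h with LPS 1 mg/ml. Supernatant TNF-a measured by enzyme immunoassay; pIC50 from inhibition curves relative to LPS-stimulated and unstimulated wells.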", "units": {"IC50": "nM"}, "values": [
      {"smiles": "COc1ccc(C(=O)Cc2c(Cl)cncc2Cl)c(OCC(=O)NC2CCCC2)c1OC", "note": "[Compound 211, N-Cyclopentyl-2-{6-[2-(3,5-dichloro-pyridin-4-yl)-acetyl]-2,3-dimethoxy-phenoxy}-acetamide]", "IC50": "< 1000"},
      {"smiles": "COc1ccc(C(=O)Cc2c(Cl)cncc2Cl)c(OCC(=O)NCCC(C)C)c1OC", "note": "[Compound 212, 2-{6-[2-(3,5-Dichloro-pyridin-4-yl)-acetyl]-2,3-dimethoxy-phenoxy}-N-(3-methyl-butyl)-acetamide]", "IC50": "< 1000"},
      {"smiles": "COc1ccc(CNC(=O)COc2c(C(=O)Cc3c(Cl)cncc3Cl)ccc(OC)c2OC)cc1", "note": "[Compound 213, 2-{6-[2-(3,5-Dichloro-pyridin-4-yl)-acetyl]-2,3-dimethoxy-phenoxy}-N-(4-methoxy-benzyl)-acetamide]", "IC50": "< 1000"},
      {"smiles": "COc1ccc(C(=O)Cc2c(Cl)cncc2Cl)c(OCC(=O)NCC(C)(C)C)c1OC", "note": "[Compound 214]", "IC50": "< 1000"},
      {"smiles": "COc1ccc(C(=O)Cc2c(Cl)cncc2Cl)c(OCC(=O)NC2CCCCC2)c1OC", "note": "[Compound 215, N-Cyclohexyl-2-{6-[2-(3,5-dichloro-pyridin-4-yl)-acetyl]-2,3-dimethoxy-phenoxy}-acetamide]", "IC50": "< 1000"},
      {"smiles": "COc1cccc(CNC(=O)COc2c(C(=O)Cc3c(Cl)cncc3Cl)ccc(OC)c2OC)c1", "note": "[Compound 216, 2-{6-[2-(3,5-Dichloro-pyridin-4-yl)-acetyl]-2,3-dimethoxy-phenoxy}-N-(3-methoxy-benzyl)-acetamide]", "IC50": "< 1000"},
      {"smiles": "COc1ccc(C(=O)Cc2c(Cl)cncc2Cl)c(OCC(=O)NC2CCCCCC2)c1OC", "note": "[Compound 217, N-Cycloheptyl-2-{6-(2-(3,5-dichloro-pyridin-4-yl)-acetyl)-2,3-dimethoxy-phenoxy}-acetamide]", "IC50": "< 1000"},
      {"smiles": "COc1ccccc1CNC(=O)COc1c(C(=O)Cc2c(Cl)cncc2Cl)ccc(OC)c1OC", "note": "[Compound 218, 2-{6-[2-(3,5-Dichloro-pyridin-4-yl)-acetyl]-2,3-dimethoxy-phenoxy}-N-(2-methoxy-benzyl)-acetamide]", "IC50": "< 1000"},
      {"smiles": "COc1ccc(C(=O)Cc2c(Cl)cncc2Cl)c(OCC(=O)NCC2CCCCC2)c1OC", "note": "[Compound 219, N-Cyclohexylmethyl-2-{6-[2-(3,5-dichloro-pyridin-4-yl)-acetyl]-2,3-dimethoxy-phenoxy}-acetamide]", "IC50": "< 1000"},
      {"smiles": "COc1ccc(C(=O)Cc2c(Cl)cncc2Cl)c(OCC(=O)NCCO)c1OC", "note": "[Compound 220, 2-{6-[2-(3,5-Dichloro-pyridin-4-yl)-acetyl]-2,3-dimethoxy-phenoxy}-N-(2-hydroxy-ethyl)-acetamide]", "IC50": "< 1000"},
      {"smiles": "COc1ccc(C(=O)Cc2c(Cl)cncc2Cl)c(OCC(=O)N[C@H](C)c2ccccc2)c1OC", "note": "[Compound 221, (R)-2-{6-[2-(3,5-Dichloro-pyridin-4-yl)-acetyl]-2,3-dimethoxy-phenoxy}-N-(1-phenyl-ethyl)-acetamide]", "IC50": "< 1000"},
      {"smiles": "COc1ccc(C(=O)Cc2c(Cl)cncc2Cl)c(OCC(=O)NCCCO)c1OC", "note": "[Compound 222, 2-{6-[2-(3,5-Dichloro-pyridin-4-yl)-acetyl]-2,3-dimethoxy-phenoxy}-N-(3-hydroxy-propyl)-acetamide]", "IC50": "< 1000"},
      {"smiles": "COCCNC(=O)COc1c(C(=O)Cc2c(Cl)cncc2Cl)ccc(OC)c1OC", "note": "[Compound 223, 2-{6-(2-(3,5-Dichloro-pyridin-4-yl)-acetyl)-2,3-dimethoxy-phenoxy}-N-(2-methoxy-ethyl)-acetamide]", "IC50": "< 1000"},
      {"smiles": "COc1ccc(C(=O)Cc2c(Cl)cncc2Cl)c(OCC(=O)NCCN(C)C)c1OC", "note": "[Compound 224, 2-{6-[2-(3,5-Dichloro-pyridin-4-yl)-acetyl]-2,3-dimethoxy-phenoxy}-N-(2-dimethylamino-ethyl)-acetamide]", "IC50": "< 1000"},
      {"smiles": "COc1ccc(C(=O)Cc2c(Cl)cncc2Cl)c(OCC(=O)NCCCN(C)C)c1OC", "note": "[Compound 225, 2-{6-[2-(3,5-Dichloro-pyridin-4-yl)-acetyl]-2,3-dimethoxy-phenoxy}-N-(3-dimethylamino-propyl)-acetamide]", "IC50": "< 1000"},
      {"smiles": "COc1ccc(C(=O)Cc2c(Cl)cncc2Cl)c(OCC(=O)N[C@@H](C)c2ccccc2)c1OC", "note": "[Compound 226, (S)-2-(6-[2-(3,5-Dichloro-pyridin-4-yl)-acetyl]-2,3-dimethoxy-phenoxy)-N-(1-phenyl-ethyl)-acetamide]", "IC50": "< 1000"},
      {"smiles": "COc1ccc(C(=O)Cc2c(Cl)cncc2Cl)c(OCC(=O)NCCCOC(C)C)c1OC", "note": "[Compound 227, 2-{6-[2-(3,5-Dichloro-pyridin-4-yl)-acetyl]-2,3-dimethoxy-phenoxy}-N-(3-isopropoxy-propyl)-acetamide]", "IC50": "< 1000"},
      {"smiles": "COc1ccc(C(=O)Cc2c(Cl)cncc2Cl)c(OCC(=O)NCc2ccco2)c1OC", "note": "[Compound 228, 2-{6-[2-(3,5-Dichloro-pyridin-4-yl)-acetyl]-2,3-dimethoxy-phenoxy}-N-furan-2-ylmethyl-acetamide]", "IC50": "< 1000"},
      {"smiles": "COc1ccc(C(=O)Cc2c(Cl)cncc2Cl)c(OCC(=O)NCc2ccccn2)c1OC", "note": "[Compound 229, 2-{6-[2-(3,5-Dichloro-pyridin-4-yl)-acetyl]-2,3-dimethoxy-phenoxy}-N-pyridin-2-ylmethyl-acetamide]", "IC50": "< 1000"},
      {"smiles": "COc1ccc(C(=O)Cc2c(Cl)cncc2Cl)c(OCC(=O)NCc2cccnc2)c1OC", "note": "[Compound 230, 2-{6-[2-(3,5-Dichloro-pyridin-4-yl)-acetyl]-2,3-dimethoxy-phenoxy}-N-pyridin-3-ylmethyl-acetamide]", "IC50": "< 1000"},
      {"smiles": "COc1ccc(C(=O)Cc2c(Cl)cncc2Cl)c(OCC(=O)NCCOc2ccccc2)c1OC", "note": "[Compound 231, 2-{6-[2-(3,5-Dichloro-pyridin-4-yl)-acetyl]-2,3-dimethoxy-phenoxy}-N-(2-phenoxy-ethyl)-acetamide]", "IC50": "< 1000"},
      {"smiles": "COc1ccc(C(=O)Cc2c(Cl)cncc2Cl)c(OCC(=O)NCc2ccncc2)c1OC", "note": "[Compound 232, 2-{6-[2-(3,5-Dichloro-pyridin-4-yl)-acetyl]-2,3-dimethoxy-phenoxy}-N-pyridin-4-ylmethyl-acetamide]", "IC50": "< 1000"},
      {"smiles": "CCc1ccc(CNC(=O)COc2c(C(=O)Cc3c(Cl)cncc3Cl)ccc(OC)c2OC)cc1", "note": "[Compound 233, 2-{6-[2-(3,5-Dichloro-pyridin-4-yl)-acetyl]-2,3-dimethoxy-phenoxy}-N-(4-ethyl-benzyl)-acetamide]", "IC50": "< 1000"},
      {"smiles": "COc1ccc(C(=O)Cc2c(Cl)cncc2Cl)c(OCC(=O)NCc2cc(F)cc(F)c2)c1OC", "note": "[Compound 234, 2-{6-[2-(3,5-Dichloro-pyridin-4-yl)-acetyl]-2,3-dimethoxy-phenoxy}-N-(3,5-difluoro-benzyl)-acetamide]", "IC50": "< 1000"},
      {"smiles": "COc1ccc(C(=O)Cc2c(Cl)cncc2Cl)c(OCC(=O)NCc2cccc(F)c2F)c1OC", "note": "[Compound 235, 2-{6-[2-(3,5-Dichloro-pyridin-4-yl)-acetyl]-2,3-dimethoxy-phenoxy}-N-(2,3-difluoro-benzyl)-acetamide]", "IC50": "< 1000"},
      {"smiles": "COc1ccc(C(=O)Cc2c(Cl)cncc2Cl)c(OCC(=O)NCCc2ccccn2)c1OC", "note": "[Compound 236, 2-{6-[2-(3,5-Dichloro-pyridin-4-yl)-acetyl]-2,3-dimethoxy-phenoxy}-N-(2-pyridin-2-yl-ethyl)-acetamide]", "IC50": "< 1000"},
      {"smiles": "COc1ccc(C(=O)Cc2c(Cl)cncc2Cl)c(OCC(=O)NCc2ccccc2C)c1OC", "note": "[Compound 237, 2-{6-[2-(3,5-Dichloro-pyridin-4-yl)-acetyl]-2,3-dimethoxy-phenoxy}-N-(2-methyl-benzyl)-acetamide]", "IC50": "< 1000"}
    ]}
  ]
}
